Experimental data: ChEMBL document CHEMBL3822420, “New peptide deformylase inhibitors design, synthesis and pharmacokinetic assessment” (Bioorg Med Chem Lett, 2016)
Converted amounts (≈) assume the structure as drawn.

Legend:
Type in all cases: functional
[1] = test system: Staphylococcus epidermidis; test: Antibacterial activity against methicillin-resistant Staphylococcus epidermidis 14-4
[2] = test system: Staphylococcus epidermidis; test: Antibacterial activity against methicillin-sensitive Staphylococcus epidermidis 14-3
[3] = test system: Staphylococcus aureus; test: Antibacterial activity against methicillin-sensitive Staphylococcus aureus 14-3
[4] = test system: Staphylococcus epidermidis; test: Antibacterial activity against methicillin-resistant Staphylococcus epidermidis 14-3
[5] = test system: Staphylococcus aureus; test: Antibacterial activity against methicillin-resistant Staphylococcus aureus 14-2
[6] = test system: Enterococcus faecalis; test: Antibacterial activity against Enterococcus faecalis 14-3
[7] = test system: Enterococcus faecalis; test: Antibacterial activity against Enterococcus faecalis 14-5
[8] = test system: Staphylococcus aureus; test: Antibacterial activity against methicillin-resistant Staphylococcus aureus 14-1
[9] = test system: Enterococcus faecalis; test: Antibacterial activity against Enterococcus faecalis 14-1
[10] = test system: Escherichia coli; test: Antibacterial activity against Escherichia coli 14-1 expressing extended-spectrum beta-lactamase
[11] = test system: Escherichia coli; test: Antibacterial activity against Escherichia coli 14-2
[12] = test system: Enterococcus faecalis; test: Antibacterial activity against Enterococcus faecalis 14-2
[13] = test system: Staphylococcus aureus; test: Antibacterial activity against methicillin-sensitive Staphylococcus aureus 14-1
[14] = test system: Escherichia coli; test: Antibacterial activity against Escherichia coli 14-2 expressing extended-spectrum beta-lactamase
[15] = test system: Staphylococcus aureus; test: Antibacterial activity against methicillin-resistant Staphylococcus aureus 14-5
[16] = test system: Staphylococcus aureus; test: Antibacterial activity against methicillin-sensitive Staphylococcus aureus 14-2
[17] = test system: Staphylococcus epidermidis; test: Antibacterial activity against methicillin-resistant Staphylococcus epidermidis 14-1
[18] = test system: Staphylococcus aureus; test: Antibacterial activity against methicillin-sensitive Staphylococcus aureus 14-4
[19] = test system: Staphylococcus epidermidis; test: Antibacterial activity against methicillin-resistant Staphylococcus epidermidis 14-2
[20] = test system: Staphylococcus epidermidis; test: Antibacterial activity against methicillin-sensitive Staphylococcus epidermidis 14-1
[21] = test system: Staphylococcus epidermidis; test: Antibacterial activity against methicillin-sensitive Staphylococcus epidermidis 14-2
[22] = test system: Staphylococcus aureus; test: Antibacterial activity against methicillin-resistant Staphylococcus aureus 14-4
[23] = test system: Escherichia coli; test: Antibacterial activity against Escherichia coli 14-1

Row | SMILES | MIC [1] [µg/mL] | MIC [2] [µg/mL] | MIC [3] [µg/mL] | MIC [4] [µg/mL] | MIC [5] [µg/mL] | MIC [6] [µg/mL] | MIC [7] [µg/mL] | MIC [8] [µg/mL] | MIC [9] [µg/mL] | MIC [10] [µg/mL] | MIC [11] [µg/mL] | MIC [12] [µg/mL] | MIC [13] [µg/mL] | MIC [14] [µg/mL] | MIC [15] [µg/mL] | MIC [16] [µg/mL] | MIC [17] [µg/mL] | MIC [18] [µg/mL] | MIC [19] [µg/mL] | MIC [20] [µg/mL] | further results
1 | CCCC[C@H](CN(O)C=O)C(=O)N1CC2(CC2)C[C@H]1C(=O)Nc1cc[nH]n1 | 8 (≈ 21.2 µM) | 4 (≈ 10.6 µM) | 16 (≈ 42.4 µM) | 4 (≈ 10.6 µM) | 32 (≈ 84.8 µM) | 64 (≈ 170 µM) | > 128 | 16 (≈ 42.4 µM) | 64 (≈ 170 µM) | 16 (≈ 42.4 µM) | > 128 | 64 (≈ 170 µM) | 16 (≈ 42.4 µM) | 128 (≈ 339 µM) | 8 (≈ 21.2 µM) | 16 (≈ 42.4 µM) | 8 (≈ 21.2 µM) | 16 (≈ 42.4 µM) | 8 (≈ 21.2 µM) | 4 (≈ 10.6 µM) | MIC [21]: 16 µg/mL (≈ 42.4 µM); MIC [22]: 16 µg/mL (≈ 42.4 µM); MIC [23]: > 128 µg/mL
2 | CCCC[C@H](CN(O)C=O)C(=O)N1CCC[C@H]1C(=O)Nc1ccc(F)c[n+]1[O-] | 0.125 (≈ 0.315 µM) | 0.06 (≈ 0.151 µM) | 0.5 (≈ 1.26 µM) | 0.06 (≈ 0.151 µM) | 1 (≈ 2.52 µM) | 2 (≈ 5.05 µM) | 128 (≈ 323 µM) | 1 (≈ 2.52 µM) | 2 (≈ 5.05 µM) | 1 (≈ 2.52 µM) | 64 (≈ 161 µM) | 2 (≈ 5.05 µM) | 0.5 (≈ 1.26 µM) | 64 (≈ 161 µM) | 0.5 (≈ 1.26 µM) | 0.5 (≈ 1.26 µM) | 0.125 (≈ 0.315 µM) | 0.5 (≈ 1.26 µM) | 0.125 (≈ 0.315 µM) | 0.06 (≈ 0.151 µM) | MIC [21]: 0.5 µg/mL (≈ 1.26 µM); MIC [22]: 1 µg/mL (≈ 2.52 µM); MIC [23]: 64 µg/mL (≈ 161 µM)
3 | CCCC[C@H](CN(O)C=O)C(=O)N1CC2(CC2)C[C@H]1C(=O)Nc1cccc(Nc2ncccn2)c1 | 0.25 (≈ 0.52 µM) | 0.125 (≈ 0.26 µM) | 0.25 (≈ 0.52 µM) | 0.06 (≈ 0.125 µM) | 0.25 (≈ 0.52 µM) | 1 (≈ 2.08 µM) | 1 (≈ 2.08 µM) | 0.25 (≈ 0.52 µM) | 0.5 (≈ 1.04 µM) | 1 (≈ 2.08 µM) | 128 (≈ 266 µM) | 1 (≈ 2.08 µM) | 0.25 (≈ 0.52 µM) | 64 (≈ 133 µM) | 0.125 (≈ 0.26 µM) | 0.25 (≈ 0.52 µM) | 0.125 (≈ 0.26 µM) | 0.125 (≈ 0.26 µM) | 0.25 (≈ 0.52 µM) | 0.125 (≈ 0.26 µM) | MIC [21]: 0.25 µg/mL (≈ 0.52 µM); MIC [22]: 0.25 µg/mL (≈ 0.52 µM); MIC [23]: 128 µg/mL (≈ 266 µM)
